Test results published in patent US20250179047A1, “5-[7-(3,4-DIHYDRO-1H-ISOQUINOLINE-2-CARBONYL)-1,2,3,4 TETRAHYDROISOQUINOLIN-6-YL]-1H-PYRROLE-3-CARBOXAMIDE DERIVATIVES, PHARMACEUTICAL COMPOSITIONS CONTAINING THEM AND THEIR USES AS PRO-APOPTOTIC AGENTS” (LES LABORATOIRES SERVIER, priority 2022, published 2025).
pIC50: −log10 of the molar value.

Key:
Type in all cases: cell-based
[1] = system: KMS-12-PE Bcl-2 G101V; experiment: In vitro cytotoxicity CellTiter-Glo 48 h, KMS-12-PE Bcl-2 G101V; conditions: for Ratio (G101V/WT): C50 KMS-12-PE Bcl-2 G101V over C50 KMS-12-PE Bcl-2 WT; for IC50: 48 h, CellTiter-Glo, C50 = concentration needed to reach 50% of the cellular viability
Method in brief: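 CTG luminescence read-out; C50 = concentration reaching 50% cellular viability. Cells: KMS-12-PE expressing Bcl-2 WT or G101V (lentiviral, TagRFP-sorted). 11-pt curve, 48 h, 37 °C/5% CO2.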

[2] = system: KMS12PE Bcl2 V156D; experiment: In vitro cytotoxicity CellTiterGlo 72 h, KMS12PE Bcl2 V156D; conditions: Homo sapiens, KMS-12-PE, read-out: C50 nM, KMS12PE Bcl2 V156D
Protocol: (§1) KMS-12-PE (ACC 606) were purchased from the Leibniz-Institute DSMZ (Braunschweig, Germany) and were grown at 37° C. in a humidified atmosphere with 5% CO2 in media recommended by the suppliers. Lentiviral particles containing Bcl-2 wild type (also named “Bcl2 WT”), Bcl-2 mutated on G101V (also named “Bcl2 G101V”), Bcl-2 mutated on D103Y (also named “Bcl2 D103Y”), Bcl-2 mutated on D103V (also named “Bcl2 D103V”), Bcl-2 mutated on D103E (also named “Bcl2 D103E”), Bcl-2 mutated on F104I (also named “Bcl2 F104I”), Bcl-2 mutated on F104L (also named “Bcl2 F104L”), Bcl-2 mutated on D111A (also named “Bcl2 D111A”), Bcl-2 mutated on A113G (also named “Bcl2 A113G”), Bcl-2 mutated on R129L (also named “Bcl2 R129L”), Bcl-2 mutated on V156D (also named “Bcl2 V156D”) were cloned into pcLV-CMV-DEST-IRES-TagRFP. Lentiviral particles (1×10^6) were mixed with Polybrene at 8 μg/ml and transduced by spinoculation for 1 h at 32° C. and incubated overnight. After 8 days, TagRFP positive-cells were sorted by FACS. BCL2 expression was monitored by immunoblotting using anti-Flag and anti-BCL2 antibodies. Cells were seeded into 96-wells plates and treated with 1:3.16 serial dilution of compounds (9 different concentrations). Cell viability was assessed using CellTiterGlo reagent following treatment for 72 h. Results were normalized to the viability of cells without compounds (control wells). The C50 values were calculated using nonlinear regression algorithms in XCell software.

[3] = system: KMS12PE Bcl2 D111A; experiment: In vitro cytotoxicity CellTiterGlo 72 h, KMS12PE Bcl2 D111A; conditions: Homo sapiens, KMS-12-PE, read-out: C50 nM, KMS12PE Bcl2 D111A
Protocol: as §1

Compound	Ratio (G101V/WT) [1]	IC50 ([1]; Homo sapiens, KMS-12-PE) [µM]	pIC50 [2]	pIC50 [3]	IC50 [1] [µM]
Cc1c(N(C(=O)c2cc(-c3cc4c(cc3C(=O)N3Cc5ccccc5C[C@H]3C)CN(C(=O)Cc3ccc(OCCN5CCOCC5)cc3)CC4)n(C)c2C)c2ccc(O)cc2)cc(C#N)n1C [Example 21, N-(5-cyano-1,2-dimethyl-1H-pyrrol-3-yl)-N-(4-hydroxyphenyl)-1,2-dimethyl-5-{7-[(3R)-3-methyl-1,2,3,4-tetrahydroisoquinoline-2-carbonyl]-2-(2-{4-[2-(morpholin-4-yl)ethoxy]phenyl}acetyl)-1,2,3,4-tetrahydroisoquinolin-6-yl}-1H-pyrrole-3-carboxamide]	4.02	0.023	8.01	8.90	–
Cc1c(N(C(=O)c2cc(-c3cc4c(cc3C(=O)N3Cc5ccccc5C[C@H]3C)CN(C(=O)Cc3ccc(OCCC5CCOCC5)cc3)CC4)n(C)c2C)c2ccc(O)cc2)cc(C#N)n1C [Example 27, N-(5-cyano-1,2-dimethyl-1H-pyrrol-3-yl)-N-(4-hydroxyphenyl)-1,2-dimethyl-5-{7-[(3R)-3-methyl-1,2,3,4-tetrahydroisoquinoline-2-carbonyl]-2-(2-{4-[2-(oxan-4-yl)ethoxy]phenyl}acetyl)-1,2,3,4-tetrahydroisoquinolin-6-yl}-1H-pyrrole-3-carboxamide]	4.23	0.0143	8.42	9.07	–
Cc1c(N(C(=O)c2cc(-c3cc4c(cc3C(=O)N3Cc5ccccc5C[C@H]3CN3CCCCC3)CN(C(=O)Cc3ccc(OCCN5CCOCC5)cc3F)CC4)n(C)c2C)c2ccc(O)cc2)cc(C#N)n1C [Example 43, N-(5-cyano-1,2-dimethylpyrrol-3-yl)-5-[2-(2-{2-fluoro-4-[2-(morpholin-4-yl)ethoxy]phenyl}acetyl)-7-{[(3S)-3-(piperidin-1-ylmethyl)-3,4-dihydro-1H-isoquinolin-2-yl]carbonyl}-3,4-dihydro-1H-isoquinolin-6-yl]-N-(4-hydroxyphenyl)-1,2-dimethylpyrrole-3-carboxamide]	4.82	–	8.18	8.95	0.0232
Cc1c(N(C(=O)c2cc(-c3cc4c(cc3C(=O)N3Cc5ccccc5C[C@H]3C)CN(C(=O)Cc3ccc(N5CCN6CCOC[C@@H]6C5)cc3F)CC4)n(C)c2C)c2ccc(O)cc2)cc(C#N)n1C [Example 45, 5-[2-(2-{4-[(9aS)-octahydropyrazino[2,1-c][1,4]oxazin-8-yl]-2-fluorophenyl}acetyl)-7-[(3R)-3-methyl-1,2,3,4-tetrahydroisoquinoline-2-carbonyl]-1,2,3,4-tetrahydroisoquinolin-6-yl]-N-(5-cyano-1,2-dimethyl-1H-pyrrol-3-yl)-N-(4-hydroxyphenyl)-1,2-dimethyl-1H-pyrrole-3-carboxamide]	6.47	0.0324	9.02	8.69	–
Cc1c(N(C(=O)c2cc(-c3cc4c(cc3C(=O)N3Cc5ccccc5C[C@H]3C)CN(C(=O)Cc3ccc(CCN5CCC(F)(F)CC5)cc3)CC4)n(C)c2C)c2ccc(O)cc2)cc(C#N)n1C [Example 51, N-(5-cyano-1,2-dimethylpyrrol-3-yl)-5-[2-(2-{4-[2-(4,4-difluoropiperidin-1-yl)ethyl]phenyl}acetyl)-7-{[(3R)-3-methyl-3,4-dihydro-1H-isoquinolin-2-yl]carbonyl}-3,4-dihydro-1H-isoquinolin-6-yl]-N-(4-hydroxyphenyl)-1,2-dimethylpyrrole-3-carboxamide]	5.07	0.0362	7.50	8.49	–
COC[C@@H]1Cc2ccccc2CN1C(=O)c1cc2c(cc1-c1cc(C(=O)N(c3ccc(O)cc3)c3cc(C#N)n(C)c3C)c(C)n1C)CCN(C(=O)Cc1ccc(OCCC3CCOCC3)cc1F)C2 [Example 52, N-(5-cyano-1,2-dimethylpyrrol-3-yl)-5-[2-(2-{2-fluoro-4-[2-(oxan-4-yl)ethoxy]phenyl}acetyl)-7-{[(3S)-3-(methoxymethyl)-3,4-dihydro-1H-isoquinolin-2-yl]carbonyl}-3,4-dihydro-1H-isoquinolin-6-yl]-N-(4-hydroxyphenyl)-1,2-dimethylpyrrole-3-carboxamide]	4.08	0.0139	7.97	8.92	–
Cc1c(N(C(=O)c2cc(-c3cc4c(cc3C(=O)N3Cc5ccccc5C[C@H]3C)CN(C(=O)Cc3ccc(OCCN5CCC(F)CC5)cc3)CC4)n(C)c2C)c2ccc(O)cc2)cc(C#N)n1C [Example 53, N-(5-cyano-1,2-dimethyl-1H-pyrrol-3-yl)-5-[2-(2-{4-[2-(4-fluoropiperidin-1-yl)ethoxy]phenyl}acetyl)-7-[(3R)-3-methyl-1,2,3,4-tetrahydroisoquinoline-2-carbonyl]-1,2,3,4-tetrahydroisoquinolin-6-yl]-N-(4-hydroxyphenyl)-1,2-dimethyl-1H-pyrrole-3-carboxamide]	5.12	0.0337	7.67	8.66	–
Cc1c(N(C(=O)c2cc(-c3cc4c(cc3C(=O)N3Cc5ccccc5C[C@H]3C)CN(C(=O)Cc3ccc(OCCN5CCSCC5)cc3)CC4)n(C)c2C)c2ccc(O)cc2)cc(C#N)n1C [Example 55, N-(5-cyano-1,2-dimethyl-1H-pyrrol-3-yl)-N-(4-hydroxyphenyl)-1,2-dimethyl-5-{7-[(3R)-3-methyl-1,2,3,4-tetrahydroisoquinoline-2-carbonyl]-2-(2-{4-[2-(thiomorpholin-4-yl)ethoxy]phenyl}acetyl)-1,2,3,4-tetrahydroisoquinolin-6-yl}-1H-pyrrole-3-carboxamide]	4.22	0.026	7.83	8.66	–
Cc1c(N(C(=O)c2cc(-c3cc4c(cc3C(=O)N3Cc5ccccc5C[C@H]3CN3CCCCC3)CN(C(=O)Cc3ccc(OCCC5CCOCC5)cc3)CC4)n(C)c2C)c2ccc(O)cc2)cc(C#N)n1C [Example 66, N-(5-cyano-1,2-dimethylpyrrol-3-yl)-N-(4-hydroxyphenyl)-1,2-dimethyl-5-[2-(2-{4-[2-(oxan-4-yl)ethoxy]phenyl}acetyl)-7-{[(3S)-3-(piperidin-1-ylmethyl)-3,4-dihydro-1H-isoquinolin-2-yl]carbonyl}-3,4-dihydro-1H-isoquinolin-6-yl]pyrrole-3-carboxamide]	5.46	0.033	8.12	8.80	–
Cc1c(C(=O)N(c2ccc(O)cc2)c2cc(C#N)n(C(F)F)c2C)cc(-c2cc3c(cc2C(=O)N2Cc4ccccc4C[C@H]2CN2CCCCC2)CN(C(=O)Cc2ccc(OCCN4CCOCC4)cc2)CC3)n1C [Example 77]	5.1	0.0487	7.72	8.44	–
Cc1c(C(=O)N(c2ccc(O)cc2)c2cc(C#N)n(C(F)F)c2C)cc(-c2cc3c(cc2C(=O)N2Cc4ccccc4C[C@H]2CN2CCCCC2)CN(C(=O)Cc2ccc(OCCN4CCOCC4)cc2F)CC3)n1C [Example 78, N-[5-cyano-1-(difluoromethyl)-2-methylpyrrol-3-yl]-5-[2-(2-{2-fluoro-4-[2-(morpholin-4-yl)ethoxy]phenyl}acetyl)-7-{[(3S)-3-(piperidin-1-ylmethyl)-3,4-dihydro-1H-isoquinolin-2-yl]carbonyl}-3,4-dihydro-1H-isoquinolin-6-yl]-N-(4-hydroxyphenyl)-1,2-dimethylpyrrole-3-carboxamide]	5.98	0.0299	8.23	8.94	–
Cc1c(N(C(=O)c2cc(-c3cc4c(cc3C(=O)N3Cc5ccccc5C[C@H]3CN3CCC[C@H](C)C3)CN(C(=O)Cc3ccc(OCCN5CCOCC5)cc3F)CC4)n(C)c2C)c2ccc(O)cc2)cc(C#N)n1C [Example 107]	4.47	0.0166	8.23	8.87	–
